{
  "source": "patent US20240148701A1",
  "about": "“WOULD HEALING METHODS” (The University of Sydney, priority 2021, published 2024)",
  "type_in_all_cases": "in vivo, mouse",
  "key": {"eNOS [1]": {"test_system": "eNOS", "experiment": "NOS activity by radioimmunoassay in hind limb tissue", "conditions": "ischemic and non-ischemic limbs, 14 days post-surgery", "description": "(§1) Hind limb tissue including the gastrocnemius and adductor muscles were isolated and collected at 14 or 28 days. Tissues were separated and implanted in OCT or placed in cryovials and snap-frozen in liquid nitrogen or were fixed in 10% formalin for 24-hours and then moved to 70% ethanol for storage.\nThe activity of NOS was measured using radioimmunoassay according to manufacturer's instructions (Cayman Chemical, USA). Samples were prepared in triplicate and detected using a liquid scintillation counter (5 min detection, Tri-Carb 4910TR 100V, Perkin Elmer, USA). All samples were also assayed in the presence of L-NAME and this was subtracted from the baseline to give a readout of NOS activity."}, "Nox 2": {"test_system": "Nox 2", "experiment": "Immunoblot of hind limb Nox 2 expression", "conditions": "ischemic limb, non-diabetic mice, n=4, P>0.05", "description": "as §1\n(§2) Gastrocnemius samples were stored at −80° C. and then mechanically homogenized in ice-cold lysis buffer containing 150 mmol/L NaCl, 200 mmol/L Tris-HCl (pH 8.0), 1% Triton X-100, 0.5% deoxycholic acid, 0.1% SDS, N-ethylmaleimide (25 mM) and protease inhibitors (cOmplete™ EDTA-free, Roche Diagnostics). 30 μg of protein lysate was denatured and run under reducing conditions on SDS-PAGE (Bolt™ pre-cast gels and reagents, Thermofisher Scientific, Australia) and transferred onto Immobilon polyvinylidene fluoride membrane (Merck Millipore, Australia). […] Membranes were detected using an Odyssey imaging platform (Licor, USA)."}, "Nox 4": {"test_system": "Nox 4", "experiment": "Immunoblot of hind limb Nox 4 expression", "description": "as §1, §2"}, "C57BL6/J mice [2]": {"test_system": "C57BL6/J mice", "experiment": "Hind limb ischemia in type 1 diabetes model, laser Doppler perfusion", "description": "(§3) Male C57BL6/J mice 8-10 weeks of age were obtained from Australian BioResources (Moss Vale, NSW) with 12 hour light/dark cycles and free access to water and mouse chow (Specialty Feeds, Australia). Mice were housed in groups of 2-5 in standard cages within a Physical Containment Level 2 laboratory. For in vivo angiogenesis 16 mice underwent the femoral vascular ligation model. Mice were anaesthetized with 1.5-2% isoflurane vaporized in oxygen and constant body temperature was maintained. All mice received pre-operative and 24-hour post-operative analgesia (carprofen, 5 mg/kg s.c). A small incision (˜15 mm) was made in the hind limb skin directly over the femoral vasculature. A portion of the femoral artery and vein, distal to the origin of the profunda femoris artery and proximal to the saphenous artery, were isolated and two ligations were performed using 6-0 silk sutures. The femoral artery and vein were then excised between the ligation sites 27. […] Hind limb blood flow was assessed prior to ligation (baseline) and immediately after undergoing hind limb ischemia, with subsequent imaging at day 3, 7, 10, 14, 21 and 28 post hind limb ischemia. […] The rate of reperfusion in the hind limb was calculated as a ratio of blood flow in the ischemic versus non-ischemic contralateral limb. […]"}, "eNOS [3]": {"test_system": "eNOS", "experiment": "eNOS immunoprecipitation, glutathionylation of eNOS in ischemic hind limb", "conditions": "ischemic limbs of type 1 diabetes mice", "description": "Gastronemius protein (500 μg) extracted as above was used for co-immunoprecipitation with eNOS. Protein G dynabeads (1.5 mg/ml, 2.8 μm beads, Thermofisher Scientific, Australia) were covalently conjugated with mouse anti-eNOS antibody (BD Biosciences, 1 μg) using bis(sulfosuccinimidyl) suberate amine-amine cross-linking solution (5 mM; ThermoFisher Scientific, Australia). Beads were washed with PBS and incubated with protein lysate overnight at 4° C. IgG controls were prepared using anti-IgG antibodies conjugated to dynabeads using an identical process. Protein was eluted from beads using LDS buffer, denatured and run in non-reduced conditions on 8% Bis-Tris gels using SDS-PAGE and transferred onto polyvinylidene fluoride membrane as above. Expression of oxidized glutathione was detected using mouse anti-glutathione antibody (Virogen, 1:1000). eNOS was detected using rabbit anti-eNOS (Cell Signaling Technology, 1:1000, Australia). Odyssey detection system was used to visualize bands as above."}, "C57BL6/J mice [4]": {"test_system": "C57BL6/J mice", "experiment": "Hind limb ischemia in type 2 diabetes model, laser Doppler perfusion", "conditions": "type 2 diabetes mice", "description": "as §3"}, "[5]": {"experiment": "Glucose tolerance testing in type 2 diabetes model", "description": "Glucose tolerance testing was conducted in fasted type 2 diabetic mice. Rodent chow was removed overnight and testing was conducted in the morning. After baseline glucose testing mice were injected intraperitoneal with sterile D-glucose (2 g/kg). Repeated blood glucose sampling was conducted every 15-30 minutes for 2 hours."}},
  "data": [
    {"compound": "C[C@H](Cc1ccc2c(c1)OC(C(=O)[O-])(C(=O)[O-])O2)NC[C@H](O)c1cccc(Cl)c1.[Na+].[Na+]", "note": "[CL 316,243]", "values": [
      {"measurement": "eNOS activity", "setting": "eNOS [1]", "value": "enhanced eNOS activity"},
      {"measurement": "Nox 2 hind limb protein expression", "setting": "Nox 2", "value": "1.04±0.46", "unit": "fold change from vehicle"},
      {"measurement": "Nox 4 hind limb protein expression", "setting": "Nox 4; ischemic limb, non-diabetic mice, n=4, P>0.05", "value": "0.88±0.28", "unit": "fold change from vehicle"},
      {"measurement": "diabetes-induced elevation in Nox4 expression", "setting": "Nox 4; type 1 diabetic mice, ischemic and non-ischemic limb, back to control levels", "value": "markedly reduced"},
      {"measurement": "perfusion ratio", "setting": "C57BL6/J mice [2]; citrate-buffer treated (non-diabetic) mice, also 14-28 days post-ischemia", "value": "not different from vehicle controls"},
      {"measurement": "greater ischemic-non-ischemic ratio (reperfusion)", "setting": "C57BL6/J mice [2]; type 1 diabetes mice, from 14 days onwards, 1 mg/kg/day s.c., vs vehicle", "value": "~20"},
      {"measurement": "glutathionylation of eNOS", "setting": "eNOS [3]", "value": "largely abolished"},
      {"measurement": "reperfusion post-ischemia", "setting": "C57BL6/J mice [4]", "value": "augmented reperfusion"},
      {"measurement": "fasted blood glucose levels", "setting": "[5]; fasted for glucose tolerance tests, did not reach significant difference", "value": "appeared lower"},
      {"measurement": "glucose tolerance", "setting": "[5]; non-hyperglycemic, non-diabetic controls", "value": "even improved"},
      {"measurement": "glucose tolerance", "setting": "[5]; type 2 diabetic mice", "value": "improved"}
    ]}
  ]
}
